Test results taken from ChEMBL document CHEMBL1926678, “Synthesis and bio-evaluation of human macrophage migration inhibitory factor inhibitor to develop anti-inflammatory agent” (Bioorg Med Chem, 2011).
The source made the active and inactive calls. The rule behind the calls is not given here.

Assays:
[1] = target: T1, Macrophage migration inhibitory factor (Homo sapiens, UniProt P14174); assay: Inhibition of human cloned MIF tautomerase activity expressed in Escherichia coli assessed as conversion of L-dopachrome methyl ester to indolecarboxylic acid methyl ester measured for 20 secs
T1 sequence (P14174 whole entry): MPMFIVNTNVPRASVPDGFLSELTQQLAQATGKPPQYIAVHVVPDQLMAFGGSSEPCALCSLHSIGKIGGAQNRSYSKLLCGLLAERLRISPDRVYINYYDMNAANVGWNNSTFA

[2] = target: Macrophage migration inhibitory factor (Mus musculus) (UniProt P34884); assay: Inhibition of MIF-induced NF-kappaB nuclear translocation in mouse RAW264.7 cells at 100 uM pretreated for 30 mins before […] stimulation measured after 2 hrs by autoradiography; assay type: cell-based
[3] = target: Macrophage migration inhibitory factor (Mus musculus) (UniProt P34884); assay: Inhibition of MIF-induced nitric oxide production in mouse RAW264.7 cells at 50 uM pretreatment by Griess assay; assay type: cell-based
RAW264.7 = assay: Cytotoxicity against mouse RAW264.7 cells assessed as cell viability at 200 uM after 24 hrs by MTT assay; assay type: cell-based; settings: raw264.7, 24 h
[4] = Cytotoxicity against rat gastric mucosal cells assessed as cell viability at 200 uM after 24 hrs by MTT assay; assay type: cell-based, Gastric mucosa
[5] = target: Macrophage migration inhibitory factor (Mus musculus) (UniProt P34884); assay: Inhibition of MIF-induced NF-kappaB nuclear translocation in mouse RAW264.7 cells assessed as inhibition of iNOS expression at 50 uM pretreated for 30 mins measured after 24 hrs by fluorescence spectrophotometry; assay type: cell-based
[6] = target: Macrophage migration inhibitory factor (Mus musculus) (UniProt P34884); assay: Inhibition of MIF-induced NF-kappaB nuclear translocation in mouse RAW264.7 cells assessed as reduction in complex formation at 40 to 80 uM pretreated for 30 mins measured after 4 hrs by electrophoretic mobility shift assay; assay type: cell-based
[7] = target: Macrophage migration inhibitory factor (Mus musculus) (UniProt P34884); assay: Inhibition of MIF-induced NF-kappaB nuclear translocation in mouse RAW264.7 cells assessed as reduction in complex formation pretreated for 30 mins measured after 4 hrs by electrophoretic mobility shift assay; assay type: cell-based

Chain of Macrophage migration inhibitory factor (Mus musculus) (P34884 2-115 limits assumed): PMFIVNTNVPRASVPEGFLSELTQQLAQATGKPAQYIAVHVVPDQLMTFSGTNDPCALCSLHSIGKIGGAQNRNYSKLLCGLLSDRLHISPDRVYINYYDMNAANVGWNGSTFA

Structure (SMILES)	IC50 [1]	also measured
COC(=O)CC1CC(c2ccc(OC(=O)CC3CC(c4ccc(OC)cc4)=NO3)cc2)=NO1 (configuration not stated)	37.2 µM	–
COc1cc(C2=NOC(CC(=O)O)C2)ccc1O (configuration not stated)	10.2 µM	–
COC(=O)CC1CC(c2ccc(OC)cc2)=NO1 (configuration not stated)	19.7 µM	–
O=C(O)CC1CC(c2ccc(O)cc2)=NO1 (configuration not stated)	15.2 µM	–
COC(=O)CC1CC(c2ccc(O)cc2)=NO1 (racemic)	–	inhibition [2]: 70%
COc1ccc(C2=NOC(C(C)=O)C2)cc1OC (configuration not stated)	35.4 µM	–
COc1ccc(C2=NOC(CC(=O)O)C2)cc1 (configuration not stated)	16.7 µM	–
CCCCOC(=O)CC1CC(c2ccc(OC)cc2)=NO1 (configuration not stated)	11.2 µM	–
COc1ccc(C2=NOC(CC(=O)Oc3cc(C)ccc3C(C)C)C2)cc1 (configuration not stated)	55.3 µM	–
COc1cc(C2=NOC(COc3ccc(C=O)cc3)C2)ccc1O (configuration not stated)	7.3 µM	inhibition [3]: Active; Activity (RAW264.7): Non-toxic; Activity [4]: Non-toxic; inhibition [5]: Active; inhibition [6]: 100%; inhibition [7]: Dose-dependent effect
COC(=O)C1CC(c2ccc(OC)c(OC)c2)=NO1 (configuration not stated)	25.2 µM	–
